Assay results published in patent US20120322829A1, “USE OF A DIPYRIDYL COMPOUND FOR TREATING ROSACEA” (GALDERMA RESEARCH & DEVELOPMENT, priority 2009, published 2012).

Legend:
Assay type in all cases: biochemical
[1] = target: MMP-13 (Homo sapiens, UniProt P45452); experiment: MMP-13 activity, fluorometric detection of reaction product; details: 10 μM; human recombinant protein; remaining activity
Protocol: (§1) The activity of MMPs of MMP-1, MMP-2, MMP-9, MMP-12, MMP-13 and TACE was measured using human recombinant proteins. The activity of MMP-8 was measured in human neutrophiles. After incubation with the corresponding substrate, the reaction product of each MMP was detected by fluorometry. The results are expressed as specific control activity percentages ((specific activity measured/specific control activity)×100) obtained in the presence of the compounds tested.

[2] = target: MMP-9 (Homo sapiens, UniProt P14780); experiment: MMP-9 activity, fluorometric detection of reaction product; details: 10 μM; human recombinant protein; remaining activity
Sequence of MMP-9 (P14780 94-707): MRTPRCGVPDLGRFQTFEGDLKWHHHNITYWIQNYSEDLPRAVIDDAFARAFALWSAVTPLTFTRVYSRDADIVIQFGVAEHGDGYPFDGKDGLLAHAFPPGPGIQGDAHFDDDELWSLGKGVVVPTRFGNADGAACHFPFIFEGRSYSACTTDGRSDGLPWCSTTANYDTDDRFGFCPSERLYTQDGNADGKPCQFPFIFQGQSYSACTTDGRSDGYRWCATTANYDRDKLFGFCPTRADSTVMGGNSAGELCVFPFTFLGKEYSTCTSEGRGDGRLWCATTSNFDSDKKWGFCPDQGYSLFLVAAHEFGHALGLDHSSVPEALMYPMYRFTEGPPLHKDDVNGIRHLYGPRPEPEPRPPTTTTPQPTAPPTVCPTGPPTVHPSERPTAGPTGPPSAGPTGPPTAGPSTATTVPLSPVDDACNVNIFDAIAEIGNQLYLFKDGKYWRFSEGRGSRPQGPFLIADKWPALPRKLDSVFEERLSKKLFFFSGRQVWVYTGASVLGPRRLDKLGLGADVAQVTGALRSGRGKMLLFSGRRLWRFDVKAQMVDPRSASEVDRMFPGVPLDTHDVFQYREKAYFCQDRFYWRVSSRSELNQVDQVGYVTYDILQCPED
Protocol: as §1

[3] = target: MMP-14 (Homo sapiens, UniProt P50281); experiment: MMP-14 activity; details: 10 μM; remaining activity
[4] = target: T1, MMP-2 (Homo sapiens, UniProt P08253); experiment: MMP-2 activity, fluorometric detection of reaction product; details: 10 μM; human recombinant protein; remaining activity
T1 sequence (P08253 110-660): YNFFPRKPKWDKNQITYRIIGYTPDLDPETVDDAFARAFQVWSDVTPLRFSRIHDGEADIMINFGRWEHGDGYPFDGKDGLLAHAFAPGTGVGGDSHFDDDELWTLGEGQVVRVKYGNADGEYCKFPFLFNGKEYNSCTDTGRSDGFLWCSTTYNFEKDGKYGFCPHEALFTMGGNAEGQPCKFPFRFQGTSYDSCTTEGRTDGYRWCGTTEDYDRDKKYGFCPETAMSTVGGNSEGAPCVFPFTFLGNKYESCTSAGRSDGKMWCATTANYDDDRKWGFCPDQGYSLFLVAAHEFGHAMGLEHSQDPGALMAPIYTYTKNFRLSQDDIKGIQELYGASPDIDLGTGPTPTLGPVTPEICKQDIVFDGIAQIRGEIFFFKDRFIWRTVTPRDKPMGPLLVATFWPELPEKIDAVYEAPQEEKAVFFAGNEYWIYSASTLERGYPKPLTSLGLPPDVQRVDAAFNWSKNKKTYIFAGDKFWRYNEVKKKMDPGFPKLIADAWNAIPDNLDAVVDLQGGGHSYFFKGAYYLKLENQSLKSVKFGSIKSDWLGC
Protocol: as §1

[5] = target: T2, MMP-8 (Homo sapiens, UniProt P22894); experiment: MMP-8 activity measured in human neutrophiles, fluorometry; details: 10 μM, remaining activity
T2 construct: endogenous in cells; host or cells: human neutrophils
T2 sequence (P22894 101-467): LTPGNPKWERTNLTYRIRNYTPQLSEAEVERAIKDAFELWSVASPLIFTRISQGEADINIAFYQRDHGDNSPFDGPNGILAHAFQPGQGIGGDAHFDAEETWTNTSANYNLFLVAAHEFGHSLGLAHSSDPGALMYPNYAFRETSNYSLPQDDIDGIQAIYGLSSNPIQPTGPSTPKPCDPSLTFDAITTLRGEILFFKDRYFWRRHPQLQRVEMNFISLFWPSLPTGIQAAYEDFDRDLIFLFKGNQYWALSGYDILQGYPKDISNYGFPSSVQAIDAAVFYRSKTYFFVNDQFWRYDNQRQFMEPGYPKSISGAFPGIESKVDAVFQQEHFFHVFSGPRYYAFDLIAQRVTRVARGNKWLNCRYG
Protocol: as §1

[6] = target: TACE (TNF-alpha converting enzyme) (Homo sapiens, UniProt P78536); experiment: TACE activity, fluorometric detection of reaction product; details: 10 μM; human recombinant protein; remaining activity
Sequence of TACE (TNF-alpha converting enzyme) (P78536 215-824): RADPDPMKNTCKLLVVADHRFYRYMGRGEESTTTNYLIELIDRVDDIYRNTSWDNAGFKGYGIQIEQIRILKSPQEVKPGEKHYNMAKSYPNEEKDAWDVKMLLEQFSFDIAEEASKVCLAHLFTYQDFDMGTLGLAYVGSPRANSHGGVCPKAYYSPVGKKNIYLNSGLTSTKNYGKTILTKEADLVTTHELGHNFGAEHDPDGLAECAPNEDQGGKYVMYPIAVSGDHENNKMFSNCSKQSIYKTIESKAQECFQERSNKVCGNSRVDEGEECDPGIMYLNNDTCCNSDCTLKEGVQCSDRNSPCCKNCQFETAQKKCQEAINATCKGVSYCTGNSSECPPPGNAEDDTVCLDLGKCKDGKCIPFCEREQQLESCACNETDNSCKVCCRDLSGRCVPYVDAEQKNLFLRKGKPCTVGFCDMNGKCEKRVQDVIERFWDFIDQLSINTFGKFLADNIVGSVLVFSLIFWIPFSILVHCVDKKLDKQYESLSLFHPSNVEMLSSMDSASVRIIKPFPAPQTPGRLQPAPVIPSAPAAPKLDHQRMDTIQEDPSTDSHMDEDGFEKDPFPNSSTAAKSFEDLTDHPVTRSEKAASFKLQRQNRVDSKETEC
Protocol: as §1

[7] = target: T3, MMP-1 (Homo sapiens, UniProt P03956); experiment: MMP-1 activity, fluorometric detection of reaction product; details: 10 μM; human recombinant protein; remaining activity
T3 sequence (P03956 100-469): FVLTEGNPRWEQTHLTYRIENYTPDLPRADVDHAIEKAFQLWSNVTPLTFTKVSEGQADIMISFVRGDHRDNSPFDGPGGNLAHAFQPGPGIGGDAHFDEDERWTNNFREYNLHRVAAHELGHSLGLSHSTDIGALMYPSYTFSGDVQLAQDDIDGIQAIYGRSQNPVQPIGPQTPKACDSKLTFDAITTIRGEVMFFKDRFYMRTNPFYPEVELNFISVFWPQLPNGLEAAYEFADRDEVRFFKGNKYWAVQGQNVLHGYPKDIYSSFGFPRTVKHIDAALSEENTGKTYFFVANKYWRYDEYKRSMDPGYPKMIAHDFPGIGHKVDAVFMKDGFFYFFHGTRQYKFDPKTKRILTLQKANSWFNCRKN
Protocol: as §1

[8] = target: MMP-12 (Homo sapiens, UniProt P39900); experiment: MMP-12 activity, fluorometric detection of reaction product; details: 10 μM; human recombinant protein; remaining activity
Sequence of MMP-12 (P39900 106-470): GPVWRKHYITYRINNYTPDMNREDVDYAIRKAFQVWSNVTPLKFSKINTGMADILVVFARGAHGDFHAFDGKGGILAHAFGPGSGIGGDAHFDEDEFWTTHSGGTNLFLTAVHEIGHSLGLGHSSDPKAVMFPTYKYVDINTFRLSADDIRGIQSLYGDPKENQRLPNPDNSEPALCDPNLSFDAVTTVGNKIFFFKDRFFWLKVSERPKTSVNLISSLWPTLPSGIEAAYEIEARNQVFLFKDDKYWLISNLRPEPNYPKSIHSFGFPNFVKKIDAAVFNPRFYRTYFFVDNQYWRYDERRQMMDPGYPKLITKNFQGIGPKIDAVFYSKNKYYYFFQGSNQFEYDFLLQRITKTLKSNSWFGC
Protocol: as §1

SMILES | MMP activity (% of control values ± SD), MMP-13 [1] | MMP activity (% of control values ± SD), MMP-9 [2] | MMP activity (% of control values ± SD), MMP-14 [3] | MMP activity (% of control values ± SD), MMP-2 [4] | MMP activity (% of control values ± SD), MMP-8 [5] | MMP activity (% of control values ± SD), TACE [6] | MMP activity (% of control values ± SD), MMP-1 [7] | MMP activity (% of control values ± SD), MMP-12 [8]
Cc1ccnc(-c2cc(C)ccn2)c1 [4,4′-dimethyl-2,2′-dipyridyl] | 90.0 ± 4.1 % of control values | 88.5 ± 3.4 % of control values | 90.8 ± 4.7 % of control values | 100.8 ± 6.0 % of control values | 86.5 ± 7.4 % of control values | 106.4 ± 1.2 % of control values | 94.3 ± 0.1 % of control values | 96.3 ± 1.0 % of control values
Cc1ccc(-c2ccc(C)cn2)nc1 [5,5′-dimethyl-2,2′-dipyridyl] | 89.4 ± 1.2 % of control values | 86.0 ± 3.4 % of control values | 90.2 ± 4.1 % of control values | 86.4 ± 2.2 % of control values | 88.3 ± 6.7 % of control values | 100.8 ± 2.1 % of control values | 96.1 ± 0.3 % of control values | 93.4 ± 0.4 % of control values
Cc1cccc(-c2cccc(C)n2)n1 [6,6′-dimethyl-2,2′-dipyridyl] | 96.2 ± 2.6 % of control values | 101.0 ± 3.3 % of control values | 84.3 ± 3.0 % of control values | 95.9 ± 7.5 % of control values | 95.0 ± 6.5 % of control values | 100.3 ± 0.2 % of control values | 98.8 ± 0.7 % of control values | 96.3 ± 1.0 % of control values
